Measured values from patent US8518980B2, “Treatment of Duchenne muscular dystrophy” (Summit Corporation PLC, priority 2006, dated 2013).

Test system: Utrophin A promoter linked to a luciferase reporter gene (H2K/mdx/Utro A reporter cell line)
Test: Luciferase reporter assay (murine H2K cells)
Settings: for activity at 10 µM: Mus musculus, H2K mdx; for Activity: luciferase level relative to control, final concentration of 10 μM

In the case of `CCOc1ccc(NCc2nc3ccccc3n2C)cc1` [Example 676, 4-ethoxy-N-((1-methyl-1H-benzo[d]imidazol-2-yl)methyl)aniline], the activity at 10 µM was 201 to 300%.

`O=[N+]([O-])c1ccc2[nH]c(-c3ccco3)nc2c1` [Example 508, 2-(furan-2-yl)-5-nitro-1H-benzo[d]imidazole] showed an activity at 10 µM of less than 200%.

In the case of `O=C(Nc1nc2ccccc2s1)c1ccccc1Br` [Example 616, N-(benzo[d]thiazol-2-yl)-2-bromobenzamide], the activity at 10 µM was greater than 401%.

In the case of `Cc1ccc(-c2nc3ccccc3[nH]2)cc1N` [Example 620, 5-(1H-benzo[d]imidazol-2-yl)-2-methylaniline], the activity at 10 µM was greater than 401%.

With `O=C(Cc1ccccc1)Nc1ccc(-c2nc3ccccc3[nH]2)cc1` [Example 501, N-(4-(1H-benzo[d]imidazol-2-yl)phenyl)-2-phenylacetamide] the activity at 10 µM was less than 200%.

`Cc1ccc(OCc2nc3ccccc3[nH]2)cc1` [Example 531, 2-(p-tolyloxymethyl)-1H-benzo[d]imidazole] gave an activity at 10 µM of 201 to 300%.

In the case of `COc1ccc(CSc2nc3ccccc3[nH]2)cc1` [Example 640, 2-(4-methoxybenzylthio)-1H-benzo[d]imidazole], the activity at 10 µM was 301 to 400%.

Work on `CCc1ccc2oc(-c3cccc(N)c3)nc2c1` [Example 502, 3-(5-ethylbenzo[d]oxazol-2-yl)aniline] yielded an activity at 10 µM of 201 to 300%.

With `Cc1ccc2nc(-c3ccc(C)c(N)c3)oc2c1` [Example 635, 2-methyl-5-(6-methylbenzo[d]oxazol-2-yl)aniline] the activity at 10 µM was 301 to 400%.

Work on `CCSc1nc2ccc(N)cc2s1` [Example 563, 2-(ethylthio)benzo[d]thiazol-6-amine] yielded an activity at 10 µM of 201 to 300%.

Work on `CSc1ccc(-c2nc3ccccc3[nH]2)cc1` [Example 543, 2-(4-(methylthio)phenyl)-1H-benzo[d]imidazole] yielded an activity at 10 µM of 201 to 300%.

`COc1ccc(OCc2nc3ccccc3n2C)cc1` [Example 528, 2-((4-methoxyphenoxy)methyl)-1-methyl-1H-benzo[d]imidazole] showed an activity at 10 µM of 201 to 300%.

Compound `O=C(Nc1ccc(-c2nc3ccccc3[nH]2)cc1)C1CCCO1` (centres unmarked) [Example 587, N-(4-(1H-Benzo[d]imidazol-2-yl)phenyl)tetrahydrofuran-2-carboxamide] has an activity at 10 µM of 301 to 400%.

Compound `Cc1ccc(S(=O)(=O)Nc2ccc3[nH]c(-c4ccco4)nc3c2)cc1` [Example 536, N-(2-(furan-2-yl)-1H-benzo[d]imidazol-5-yl)-4-methylbenzenesulfonamide] has an activity at 10 µM of less than 200%.

`Cc1ccc2oc(-c3ccc([N+](=O)[O-])cc3)nc2c1` [Example 505, 5-methyl-2-(4-nitrophenyl)benzo[d]oxazole] gave an activity at 10 µM of 201 to 300%.

In the case of `CCN(CC)S(=O)(=O)c1ccc2oc(-c3ccc(Cl)cc3)nc2c1` [Example 439, 2-(4′-chlorophenyl)-5-(N,N-diethylsulfonamidyl)-benzoxazole], the Activity (Table 1) was “+ (Up to 200% relative to control)”.

`Clc1ccc(OCc2nc3ccccc3[nH]2)c(Cl)c1` [Example 461, 2-((2,4-dichlorophenoxy)methyl)-1H-benzo[d]imidazole] gave an activity at 10 µM of 301 to 400%.

Work on `CC(=O)Nc1ccc(-c2nc3cc(C)ccc3o2)cc1` [Example 662, N-(4-(5-methylbenzo[d]oxazol-2-yl)phenyl)acetamide] yielded an activity at 10 µM of 301 to 400%.

With `CCc1ccc2oc(-c3cc(N)ccc3O)nc2c1` [Example 551, 4-amino-2-(5-ethylbenzo[d]oxazol-2-yl)phenol] the activity at 10 µM was less than 200%.

For `O=C(Nc1nc2ccccc2[nH]1)c1cccc(Cl)c1` [Example 679, N-(1H-benzo[d]imidazol-2-yl)-3-chlorobenzamide], the activity at 10 µM was 201 to 300%.

With `Nc1cccc(-c2nc3ccccc3s2)c1` [Example 602, 3-(Benzo[d]thiazol-2-yl)aniline] the activity at 10 µM was 301 to 400%.

Work on `CC(=O)c1c(C)nc(Nc2nc3ccccc3o2)nc1C` [Example 681, 1-(2-(benzo[d]oxazol-2-ylamino)-4,6-dimethylpyrimidin-5-yl)ethanone] yielded an activity at 10 µM of 201 to 300%.

`Cc1ccc(NC(=O)C(=O)c2c[nH]c3ccccc23)c(Br)c1` [Example 663, N-(2-bromo-4-methylphenyl)-2-(1H-indol-3-yl)-2-oxoacetamide] gave an activity at 10 µM of 301 to 400%.

For `Cc1cc(-c2nc3cc(Cl)ccc3o2)ccc1[N+](=O)[O-]` [Example 539, 5-chloro-2-(3-methyl-4-nitrophenyl)benzo[d]oxazole], the activity at 10 µM was less than 200%.

For `c1ccc(-c2ccc(-c3nc4ccccc4[nH]3)cc2)cc1` [Example 558, 2-(biphenyl-4-yl)-1H-benzo[d]imidazole], the activity at 10 µM was less than 200%.

Work on `O=C(Nc1nc2ccc(F)cc2s1)c1cccs1` [Example 658, N-(6-fluorobenzo[d]thiazol-2-yl)thiophene-2-carboxamide] yielded an activity at 10 µM of 301 to 400%.

In the case of `Cn1c(-c2ccc(N)cc2)nc2cc(N)ccc21` [Example 490, 2-(4-aminophenyl)-1-methyl-1H-benzo[d]imidazol-5-amine], the activity at 10 µM was less than 200%.

With `O=[N+]([O-])c1ccc2nc(-c3ccccc3)[nH]c2c1` [Example 604, 6-Nitro-2-phenyl-1H-benzo[d]imidazole] the activity at 10 µM was 301 to 400%.

In the case of `COc1ccc(-c2nc3cc(N)ccc3o2)cc1OC` [Example 515, 2-(3,4-dimethoxyphenyl)benzo[d]oxazol-5-amine], the activity at 10 µM was 201 to 300%.

For `Cc1ccc(-c2nc3cc(N)ccc3o2)c(Cl)c1` [Example 527, 2-(2-chloro-4-methylphenyl)benzo[d]oxazol-5-amine], the activity at 10 µM was 201 to 300%.

With `Cc1cccc(-c2nc3cc([N+](=O)[O-])ccc3o2)c1` [Example 533, 5-nitro-2-m-tolylbenzo[d]oxazole] the activity at 10 µM was 201 to 300%.

Compound `O=C(Nc1ccc(-c2nc3ccccc3[nH]2)cc1)c1ccco1` [Example 562, N-(4-(1H-benzo[d]imidazol-2-yl)phenyl)furan-2-carboxamide] has an activity at 10 µM of 301 to 400%.

Work on `Oc1ccccc1-c1nc2ccccc2s1` [Example 483, 2-(benzo[d]thiazol-2-yl)phenol] yielded an activity at 10 µM of less than 200%.

Work on `CCC(=O)Nc1ccc(-c2nc3ccccc3s2)cc1` [Example 667, N-(4-(benzo[d]thiazol-2-yl)phenyl)propionamide] yielded an activity at 10 µM of 201 to 300%.

With `COc1ccc(-c2nc3ccccc3s2)cc1N` [Example 597, 5-(Benzo[d]thiazol-2-yl)-2-methoxyaniline] the activity at 10 µM was 301 to 400%.

Compound `O=C(Nc1nc2ccc(F)cc2s1)c1ccccc1Br` [Example 629, 2-bromo-N-(6-fluorobenzo[d]thiazol-2-yl)benzamide] has an activity at 10 µM greater than 401%.

`Nc1ccc2oc(-c3cccc4ccccc34)nc2c1` [Example 577, 2-(naphthalen-1-yl)benzo[d]oxazol-5-amine] was tested, and the activity at 10 µM was less than 200%.

Compound `Cc1ccc2nc(-c3ccc(NC(=O)C(C)C)cc3)oc2c1` [Example 564, N-(4-(6-methylbenzo[d]oxazol-2-yl)phenyl)isobutyramide] has an activity at 10 µM of less than 200%.

In the case of `Cc1ccc2[nH]c(-c3ccc(NC(=O)c4ccco4)cc3)nc2c1` [Example 580, N-(4-(5-Methyl-1H-benzo[d]imidazol-2-yl)phenyl)furan-2-carboxamide], the activity at 10 µM was 301 to 400%.

`CN(C)c1ccc(-c2nc3ccccc3o2)cc1` [Example 486, 4-(benzo[d]oxazol-2-yl)-N,N-dimethylaniline] showed an activity at 10 µM of less than 200%.

In the case of `O=C(COc1ccc2c(c1)OCO2)Nc1nc2ccccc2s1` [Example 614, 2-(Benzo[d][1,3]dioxol-5-yloxy)-N-(benzo[d]thiazol-2-yl)acetamide], the activity at 10 µM was less than 200%.

`O=C(c1ccccc1)c1ccc2nc(-c3ccccc3)[nH]c2c1` [Example 581, Phenyl (2-phenyl-1H-benzo[d]imidazol-6-yl)methanone] was tested, and the Activity (Table 2) was “+ (Up to 200% relative to control)”.

Work on `CC(=O)Nc1ccc(-c2nc3cc(C)cc(C)c3o2)cc1` [Example 529, N-(4-(5,7-dimethylbenzo[d]oxazol-2-yl)phenyl)acetamide] yielded an activity at 10 µM of 201 to 300%.

With `O=C(Nc1ccc(-c2nc3ccccc3s2)cc1)C1CC1` [Example 661, N-(4-(benzo[d]thiazol-2-yl)phenyl)cyclopropanecarboxamide] the activity at 10 µM was 301 to 400%.

With `CCC(=O)Nc1cccc(-c2nc3cc(C)ccc3o2)c1` [Example 644, N-(3-(5-methylbenzo[d]oxazol-2-yl)phenyl)propionamide] the activity at 10 µM was 301 to 400%.

With `COc1ccc(-c2nc3cc([N+](=O)[O-])ccc3[nH]2)cc1` [Example 586, 2-(4-Methoxyphenyl)-5-nitro-1H-benzo[d]imidazole] the activity at 10 µM was 201 to 300%.

In the case of `Nc1ccc2oc(-c3ccc(Cl)cc3)nc2c1` [Example 488, 2-(4-chlorophenyl)benzo[d]oxazol-5-amine], the activity at 10 µM was 201 to 300%.

`CC(=O)Nc1ccc2oc(-c3ccc(Cl)cc3Cl)nc2c1` [Example 517, N-(2-(2,4-dichlorophenyl)benzo[d]oxazol-5-yl)acetamide] gave an activity at 10 µM of 201 to 300%.

Compound `Nc1ccc(-c2nc3cc(Cl)cc(Cl)c3o2)cc1` [Example 518, 4-(5,7-dichlorobenzo[d]oxazol-2-yl)aniline] has an activity at 10 µM of 201 to 300%.

In the case of `Cc1ccc2[nH]c(-c3ccc([N+](=O)[O-])cc3)nc2c1` [Example 605, 5-Methyl-2-(4-nitrophenyl)-1H-benzo[d]imidazole], the activity at 10 µM was 301 to 400%.

Work on `O=C(Nc1nc2ccccc2s1)c1cc(Br)ccc1Cl` [Example 671, N-(benzo[d]thiazol-2-yl)-5-bromo-2-chlorobenzamide] yielded an activity at 10 µM of 201 to 300%.

`COc1ccc(-c2nc3cc(N)ccc3o2)cc1` [Example 512, 2-(4-methoxyphenyl)benzo[d]oxazol-5-amine] showed an activity at 10 µM of less than 200%.

With `O=C(Nc1ccc(-c2nc3ccccc3[nH]2)cc1)c1ccccc1` [Example 497, N-(4-(1H-benzo[d]imidazol-2-yl)phenyl)benzamide] the activity at 10 µM was less than 200%.

With `Cc1ccc2oc(-c3cccs3)nc2c1` [Example 612, 5-Methyl-2-(thiophen-2-yl)benzo[d]oxazole] the activity at 10 µM was 201 to 300%.

Compound `CCOc1ccc(-c2nc3cc(N)ccc3o2)cc1` [Example 549, 2-(4-ethoxyphenyl)benzo[d]oxazol-5-amine] has an activity at 10 µM of less than 200%.

Compound `CCOCCC(=O)Nc1ccc(-c2nc3ccc(C)cc3s2)cc1` [Example 660, 3-ethoxy-N-(4-(6-methylbenzo[d]thiazol-2-yl)phenyl)propanamide] has an activity at 10 µM of 301 to 400%.
